These results are taken from ChEMBL document CHEMBL4765425, “Synthesis of 1,3,4-oxadiazole derivatives with anticonvulsant activity and their binding to the GABA receptor” (Eur J Med Chem, 2020).

Data set [1] is described as follows: Protection index, ratio of TD50 for neurotoxicity in ip dosed Kunming mouse to ED50 for anticonvulsant activity in ip dosed ScPTZ-induced Kunming mouse. As to conditions: in vivo, read-out: TI. In kind it is toxicity, organism-based.
Data set [2] can be described thus: Neurotoxicity in Kunming mouse at 300 mg/kg, ip measured after 30 mins by rotarod test. It counts as toxicity, organism-based. As to conditions: in vivo, 0.5 h.
Data set [3] relates to Mus musculus. As to the kind of experiment: Anticonvulsant activity in Kunming mouse assessed as reduction in ScPTZ-induced seizure at 100 mg/kg, ip measured after 30 mins. It counts as functional, organism-based.
Data set [4] concerns Mus musculus. As to the kind of experiment: Anticonvulsant activity in Kunming mouse assessed as reduction in MES-induced seizure at 30 mg/kg, ip measured after 30 mins. It counts as functional, organism-based.
Data set [5] relates to Mus musculus. As to the kind of experiment: Anticonvulsant activity in ip dosed Kunming mouse assessed as reduction in MES-induced seizure measured after 30 mins. As to conditions: 0.5 h. In kind it is functional.
In data set [6] the test system is Mus musculus. Briefly: Anticonvulsant activity in ip dosed Kunming mouse assessed as reduction in ScPTZ-induced seizure measured after 30 mins. It counts as functional. Particulars: 0.5 h.
Data set [7] relates to Mus musculus. Briefly: Anticonvulsant activity in Kunming mouse assessed as reduction in MES-induced seizure at 100 mg/kg, ip measured after 30 mins. It counts as functional, organism-based.
Data set [8] can be described thus: Displacement of [3H]flunitrazepam from GABA-A receptor benzodiazepine site in mouse cerebellum synaptosomal membrane. In kind it is subcellular, Synaptosome. A general note: Loss of bound radioactivity is the signal in a displacement assay; it reports binding, not function.
Data set [9] in a line: Neurotoxicity in ip dosed Kunming mouse measured after 30 mins by rotarod test. It counts as toxicity, organism-based. As to conditions: in vivo. For orientation: The rotarod test checks motor coordination on a turning rod.
Data set [10] in a line: Neurotoxicity in Kunming mouse at 100 mg/kg, ip measured after 30 mins by rotarod test. It counts as toxicity, organism-based. As to conditions: in vivo, 0.5 h.
A short description of data set [11]: Protection index, ratio of TD50 for neurotoxicity in ip dosed Kunming mouse to ED50 for anticonvulsant activity in ip dosed MES-induced Kunming mouse. In kind it is toxicity, organism-based. Particulars: in vivo, read-out: TI.
For data set [12], the system named is Mus musculus. Briefly: Anticonvulsant activity in Kunming mouse assessed as reduction in ScPTZ-induced seizure at 30 mg/kg, ip measured after 30 mins. In kind it is functional, organism-based.
Data set [13] relates to Rattus norvegicus. Briefly: Effect on GABA level in Wistar rat brain assessed as increase in GABA level at 30 mg/kg, ip measured after 7 days. It counts as functional, organism-based. As to conditions: time 7.0 day.
For data set [14], the system named is Rattus norvegicus. As to the kind of experiment: Anxiolytic activity in Wistar rat assessed as increase in time spent in open sided arms at 1 mg/kg, ip measured for 5 mins by elevated plus maze test. It counts as functional, organism-based.
For data set [15], the system named is Rattus norvegicus. As to the kind of experiment: Anxiolytic activity in Wistar rat assessed as increase in time spent in open sided arms at 1 mg/kg, ip measured for 5 mins in presence of GABAA receptor antagonist by elevated plus maze test. In kind it is functional, organism-based.
Data set [16] has as its system Rattus norvegicus. Briefly: Effect on GABA level in Wistar rat brain assessed as increase in GABA level at 30 mg/kg, ip measured after 2 hrs. In kind it is functional, organism-based.
The nature of data set [17]: Neurotoxicity in Kunming mouse at 30 mg/kg, ip measured after 30 mins by rotarod test. As to conditions: in vivo, 0.5 h. In kind it is toxicity, organism-based.
Data set [18] has as its system Mus musculus. Briefly: Anticonvulsant activity in Kunming mouse assessed as reduction in MES-induced seizure at 2 mg/kg, ip measured after 30 mins. In kind it is functional, organism-based.
For data set [19], the system named is Mus musculus. As to the kind of experiment: Anticonvulsant activity in Kunming mouse assessed as reduction in ScPTZ-induced seizure at 300 mg/kg, ip measured after 30 mins. It counts as functional, organism-based.
In data set [20] the test system is Mus musculus. As to the kind of experiment: Anticonvulsant activity in Kunming mouse assessed as reduction in MES-induced seizure at 300 mg/kg, ip measured after 30 mins. It counts as functional, organism-based.

By ED50 is commonly meant the dose that gives a 50% effect, or the effect in half of the subjects. The pIC50 is −log10 of the IC50, conventionally taken in molar units. In general, TD50 refers to the dose at which the toxic effect under study appears in half of the subjects. Higher therefore signals lower toxicity.

Each structure is given as a SMILES string. pIC50: −log10 of the molar value. The source made the active and inactive calls. The calls are words filed in the database; no cut-off is given here.

Regarding `CCCCCCSc1nnc(COc2ccc3c(c2)CCC(=O)N3)o1`, the selectivity ratio in [1] was determined as 26; in [11], 44.7. The Activity result in data set [2] and in data set [10] was “Non-Toxic” in each case. Besides, the outcome in the data set on Mus musculus [3], in the data set with Mus musculus [4] and with Mus musculus [7] was Active. Moreover, the ED50 in the data set with Mus musculus [5] came to 10.4 mg/kg; in the data set with Mus musculus [6], 17.9 mg/kg. In addition, in [8], the pIC50 is 6.06. In addition, the TD50 at 0.5 h in [9] was determined as 466 mg/kg.

For `CCCCCSc1nnc(COc2ccc(-n3cnnc3)cc2)o1`, the selectivity ratio in data set [1] stood at 15.1; in data set [11] it was 22.5. The Activity entry in data set [2] and in [10] was “Non-Toxic” in each case. Besides, the outcome in the data set with Mus musculus [3], with Mus musculus [4] and in the data set on Mus musculus [7] was Active. For the same compound, the values for the ED50 with Mus musculus [5] and in the data set with Mus musculus [6] were 18.7 mg/kg and 27.9 mg/kg, respectively. Besides, the pIC50 in data set [8] was 5.46. The compound further yielded a TD50 at 0.5 h in data set [9] of 421 mg/kg.

For the compound `CCCCCSc1nnc(COc2ccc3c(c2)CCC(=O)N3)o1`, the selectivity ratio in data set [1] is 56.4; in [11], 64.6. Further, the Activity entry in data set [2] and in data set [10] was “Non-Toxic” each time. For the same compound, the outcome in the data set with Mus musculus [3], in the data set with Mus musculus [4], in the data set with Mus musculus [7], with Mus musculus [12], in the data set on Rattus norvegicus [13] and with Rattus norvegicus [14] was Active. Moreover, the outcome in the data set on Rattus norvegicus [16] was Active. The ED50 is 8.9 mg/kg with Mus musculus [5] and 10.2 mg/kg in the data set on Mus musculus [6]. For the same compound, in [8], the pIC50 is 6.96. In addition, the outcome with Rattus norvegicus [15] was inactive. The compound also showed a TD50 at 0.5 h in data set [9] of 575 mg/kg.

As for `NC(=O)N1c2ccccc2C=Cc2ccccc21` [CARBAMAZEPINE], in data set [17], the Activity result is listed as “Non-Toxic”. The result in the data set with Mus musculus [4] was Active. Besides, the ED50 in the data set on Mus musculus [5] was determined as 11.8 mg/kg. Moreover, the selectivity ratio in [11] worked out at 6.4.

Regarding `CN1C(=O)CN=C(c2ccccc2)c2cc(Cl)ccc21` [DIAZEPAM], the pIC50 in data set [8] is 7.38. For the same compound, the outcome in the data set on Rattus norvegicus [14] and in the data set with Mus musculus [18] was Active.

`CC(=O)Nc1ccc(OCc2nnc(SCc3ccccc3F)o2)cc1`: the Activity entry in data set [2] and in [10] was “Non-Toxic” in each case. In addition, the outcome in the data set with Mus musculus [19] and in the data set with Mus musculus [20] was Active. Also, in the data set with Mus musculus [12], the outcome was inactive.

For the compound `CCCCCCCSc1nnc(COc2ccc(-n3cnnc3)cc2)o1`, the Activity entry in [2] and in data set [10] was “Non-Toxic” throughout. In addition, the result in the data set on Mus musculus [19] and in the data set with Mus musculus [20] was Active. In addition, the result in the data set on Mus musculus [4] and in the data set with Mus musculus [12] was inactive.

In the case of `O=C1CCc2cc(OCc3nnc(SCc4ccc(C(F)(F)F)cc4)o3)ccc2N1`, the selectivity ratio in data set [1] stood at 13.6; in [11] it was 16.2. The Activity result in data set [2] and in data set [10] was “Non-Toxic” throughout. Further, the outcome with Mus musculus [3] and with Mus musculus [7] was Active. For the same compound, the ED50 in the data set with Mus musculus [5] worked out at 23.1 mg/kg; in the data set with Mus musculus [6] it was 27.6 mg/kg. Moreover, the pIC50 in [8] was 5.28. Further, the TD50 at 0.5 h in data set [9] worked out at 376 mg/kg.
